Assay results taken from patent US4459290A, “C-23-Modified derivatives of OMT, pharmaceutical compositions and method of use” (priority 1982, dated 1984).
In brackets after ≈: the same amount, converted by molar mass. Like-named read-outs stand apart in the source and are kept apart here.

Legend:
[1] = test system: Streptococcus pyogenes C203; test: ED50 in mice experimentally infected with S. pyogenes C203 (Table VIII); format: in vivo
Experimental: The C-23 modified derivatives of OMT of this invention have shown in vivo antimicrobial activity against experimental infections. When two doses of test compound were administered to mice experimentally infected with a gram-positive bacterium, S. pyogenes C203, the activity observed was measured as an ED50 value [effective dose in mg/kg to protect 50% of the test animals: see Warren Wick, et al., J. Bacteriol. 81, 233-235 (1961)].

these strains = test: Activity against the strains of Table VI, agar-dilution; format: cell-based; conditions: at the levels tested
Experimental: (§1) Especially noteworthy is the improved activity against gram-negative bacteria for several derivatives when compared to the activity of OMT. […] The MIC's in Tables V and VI were determined by standard agar-dilution assays. The MIC's in Table VII were obtained using a conventional broth-dilution microtiter test.

[2] = test system: Pasteurella multocida 22A; test: MIC, broth-dilution microtiter test (Table VII); format: cell-based; conditions: Pasteurella multocida; P. multocida 22A; broth-dilution microtiter; read-out: MIC
Experimental: as §1

Streptococcus sp. 80 = test: MIC, broth-dilution microtiter test (Table VII); format: cell-based; conditions: Streptococcus sp. 80; broth-dilution microtiter; read-out: MIC
Experimental: as §1

[3] = test system: Pasteurella hemolytica 23C; test: MIC, broth-dilution microtiter test (Table VII); format: cell-based; conditions: Pasteurella, P. hemolytica 23C, read-out: MIC
Experimental: as §1

[4] = test system: Pasteurella multocida 68C; test: MIC, broth-dilution microtiter test (Table VII); format: cell-based; conditions: Pasteurella multocida; P. multocida 68C; broth-dilution microtiter; read-out: MIC
Experimental: as §1

Staphylococcus aureus = test: MIC, broth-dilution microtiter test (Table VII); format: cell-based; conditions: Staphylococcus aureus
Experimental: as §1

Mycoplasma hyorhinis = test: MIC, broth-dilution microtiter test (Table VII); format: cell-based
Experimental: as §1

Mycoplasma gallisepticum = test: MIC, broth-dilution microtiter test (Table VII); format: cell-based; conditions: Mycoplasmoides gallisepticum
Experimental: as §1

[5] = test system: Pasteurella hemolytica 22C; test: MIC, broth-dilution microtiter test (Table VII); format: cell-based; conditions: Pasteurella, P. hemolytica 22C, read-out: MIC
Experimental: as §1

[6] = test system: Pasteurella multocida 17E; test: MIC, broth-dilution microtiter test (Table VII); format: cell-based; conditions: Pasteurella multocida; P. multocida 17E, bovine isolate; broth-dilution microtiter; read-out: MIC
Experimental: as §1

[7] = test system: Pasteurella multocida 60A; test: MIC, broth-dilution microtiter test (Table VII); format: cell-based; conditions: Pasteurella multocida; P. multocida 60A, avian isolate; broth-dilution microtiter; read-out: MIC
Experimental: as §1

Mycoplasma synoviae = test: MIC, broth-dilution microtiter test (Table VII); format: cell-based; conditions: Mycoplasmopsis synoviae
Experimental: as §1

[8] = test system: Pasteurella multocida 40G; test: MIC, broth-dilution microtiter test (Table VII); format: cell-based; conditions: Pasteurella multocida; P. multocida 40G; broth-dilution microtiter; read-out: MIC
Experimental: as §1

[9] = test system: Pasteurella hemolytica 41D; test: MIC, broth-dilution microtiter test (Table VII); format: cell-based; conditions: Pasteurella, P. hemolytica 41D, read-out: MIC
Experimental: as §1

[10] = test system: Streptococcus pyogenes C203; test: MIC, standard agar-dilution assay (Table V); format: cell-based; conditions: Streptococcus pyogenes, C203
Experimental: (§2) The MIC's in Tables V and VI were determined by standard agar-dilution assays. The MIC's in Table VII were obtained using a conventional broth-dilution microtiter test.

Escherichia coli TEM = test: MIC, standard agar-dilution assay (Table V); format: cell-based; conditions: Escherichia coli; E. coli TEM; agar dilution; read-out: MIC
Experimental: as §2

[11] = test system: Haemophilus influenzae Holt; test: MIC, standard agar-dilution assay (Table V); format: cell-based; conditions: Haemophilus influenzae
Experimental: as §2

[12] = test system: Haemophilus influenzae R252; test: MIC, standard agar-dilution assay (Table V); format: cell-based; conditions: Haemophilus influenzae, R252
Experimental: as §2

Shigella sonnei N9 = test: MIC, standard agar-dilution assay (Table V); format: cell-based
Experimental: as §1

[13] = test system: Staphylococcus aureus X400; test: MIC, standard agar-dilution assay (Table V); format: cell-based; conditions: Staphylococcus aureus, X400
Experimental: as §1

[14] = test system: Staphylococcus epidermidis EPI1; test: MIC, standard agar-dilution assay (Table V); format: cell-based; conditions: Staphylococcus epidermidis; S. epidermidis EPI1; agar dilution; read-out: MIC
Experimental: as §1

Escherichia coli N10 = test: MIC, standard agar-dilution assay (Table V); format: cell-based; conditions: Escherichia coli; E. coli N10; agar dilution; read-out: MIC
Experimental: as §1

[15] = test system: Staphylococcus epidermidis EPI2; test: MIC, standard agar-dilution assay (Table V); format: cell-based; conditions: Staphylococcus epidermidis; S. epidermidis EPI2; agar dilution; read-out: MIC
Experimental: as §1

[16] = test system: Staphylococcus aureus V41; test: MIC, standard agar-dilution assay (Table V); format: cell-based; conditions: Staphylococcus aureus, V41
Experimental: as §1

[17] = test system: Klebsiella pneumoniae KAE; test: MIC, standard agar-dilution assay (Table V); format: cell-based; conditions: Klebsiella pneumoniae; K. pneumoniae KAE; agar dilution; read-out: MIC
Experimental: as §1

[18] = test system: Staphylococcus aureus X1.1; test: MIC, standard agar-dilution assay (Table V); format: cell-based; conditions: Staphylococcus aureus, X1.1
Experimental: as §1

Streptococcus Group 9960 = test: MIC, standard agar-dilution assay (Table V); format: cell-based; conditions: GROUP9960
Experimental: as §1

[19] = test system: Klebsiella pneumoniae X26; test: MIC, standard agar-dilution assay (Table V); format: cell-based; conditions: Klebsiella pneumoniae, X26
Experimental: as §1

[20] = test system: Streptococcus Group D X66; test: MIC, standard agar-dilution assay (Table V); format: cell-based
Experimental: as §1

[21] = test system: Staphylococcus aureus S13E; test: MIC, standard agar-dilution assay (Table V); format: cell-based; conditions: Staphylococcus aureus, S13E
Experimental: as §1

Escherichia coli EC14 = test: MIC, standard agar-dilution assay (Table V); format: cell-based; conditions: Escherichia coli; E. coli EC14; agar dilution; read-out: MIC
Experimental: as §1

C=C1C=CC(=O)C(C)CC(CC=O)C(OC2OC(C)C(O)C(N(C)C)C2O)C(C)C(O)CC(=O)OC(CC)C2CC12 (stereo not drawn) [Compound 16]
ED50 ([1]; C203, po, read-out: ED50, Oral): > 100 mg/kg | ED50 ([1]; C203, sc, read-out: ED50, Subcutaneous): > 30 mg/kg | activity against these strains (these strains): did not show activity | MIC [2]: 25 µg/mL (≈ 43.1 µM) | MIC (Streptococcus sp. 80): 6.25 µg/mL (≈ 10.8 µM) | MIC [3]: 50 µg/mL (≈ 86.2 µM) | MIC [4]: 25 µg/mL (≈ 43.1 µM) | MIC (Staphylococcus aureus): 12.5 µg/mL (≈ 21.6 µM) | MIC (Mycoplasma hyorhinis): 12.5 µg/mL (≈ 21.6 µM) | MIC (Mycoplasma gallisepticum): 1.56 µg/mL (≈ 2.69 µM) | MIC [5]: > 50 µg/mL | MIC [6]: 25 µg/mL (≈ 43.1 µM) | MIC [7]: 25 µg/mL (≈ 43.1 µM) | MIC (Mycoplasma synoviae): 12.5 µg/mL (≈ 21.6 µM) | MIC [8]: 25 µg/mL (≈ 43.1 µM) | MIC [9]: 50 µg/mL (≈ 86.2 µM) | MIC [10]: 1 µg/mL (≈ 1.72 µM) | MIC (Escherichia coli TEM): > 128 µg/mL | MIC [11]: 64 µg/mL (≈ 110 µM) | MIC [12]: 64 µg/mL (≈ 110 µM) | MIC (Shigella sonnei N9): > 128 µg/mL | MIC [13]: 4 µg/mL (≈ 6.9 µM) | MIC [14]: 4 µg/mL (≈ 6.9 µM) | MIC (Escherichia coli N10): > 128 µg/mL | MIC [15]: 4 µg/mL (≈ 6.9 µM) | MIC [16]: 4 µg/mL (≈ 6.9 µM) | MIC [17]: > 128 µg/mL | MIC [18]: 4 µg/mL (≈ 6.9 µM) | MIC (Streptococcus Group 9960): 8 µg/mL (≈ 13.8 µM) | MIC [19]: 64 µg/mL (≈ 110 µM) | MIC [20]: 4 µg/mL (≈ 6.9 µM) | MIC [21]: 4 µg/mL (≈ 6.9 µM) | MIC (Escherichia coli EC14): > 128 µg/mL
